Activity calls are given as the source filed them.
What was measured:
[1] = test system: Streptococcus sp. 'group A'; test: growth inhibition of control SK(-) GAS strain, dose response, counter-screen for streptokinase expression inhibitor project, luminescence, kanamycin, BacTiterGlo, confirmation (AID 1900); type: functional, organism-based
[2] = target: T1, Streptokinase A (Streptococcus pyogenes serotype M1, UniProt P10520); test: S. pyogenes streptokinase expression inhibitors, potency, dose response, plasminogen activation absorbance, OD405 (AID 1914); type: functional, Streptococcus pyogenes M1 GAS;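 note: secreted streptokinase activity via plasminogen activation per viability signal from cell pellet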
T1 sequence (P10520 whole entry): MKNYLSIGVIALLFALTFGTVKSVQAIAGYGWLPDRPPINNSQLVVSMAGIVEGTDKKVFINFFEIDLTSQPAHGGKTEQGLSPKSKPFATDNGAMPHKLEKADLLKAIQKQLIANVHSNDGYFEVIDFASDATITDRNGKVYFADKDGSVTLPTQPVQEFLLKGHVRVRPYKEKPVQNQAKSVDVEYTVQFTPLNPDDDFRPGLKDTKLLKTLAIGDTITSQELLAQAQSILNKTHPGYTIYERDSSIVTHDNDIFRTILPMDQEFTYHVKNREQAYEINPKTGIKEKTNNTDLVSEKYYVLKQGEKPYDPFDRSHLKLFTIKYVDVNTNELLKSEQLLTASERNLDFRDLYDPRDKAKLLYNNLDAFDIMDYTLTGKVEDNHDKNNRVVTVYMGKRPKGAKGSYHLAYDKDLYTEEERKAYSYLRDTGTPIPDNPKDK

[3] = test system: Streptococcus; test: Group A Streptococcus viability loss, dose response, counter-screen for streptokinase expression inhibitor project, luminescence, BacTiterGlo (AID 1915); type: functional, organism-based;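 note: potency for reduction of bacterial viability or growth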
[4] = target: Cysteine protease ATG4B (Homo sapiens, UniProt Q9Y4P1); type: functional;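 note: Fluorescence-based dose-response confirmation assay measuring inhibition of ATG4B activity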
[5] = target: Phospholipase A2 (Homo sapiens, UniProt P04054); type: functional;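 note: confirmatory dose-response counterscreen on phospholipase A2, testing hits that came from an ultra-high-throughput screen for ATG4B inhibitors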
[6] = Luminescence Cell-Based Dose Retest to Confirm Inhibitors of Cancer Stem Cells. [Related pubchem assays (depositor defined):AID2717, AID2721]; type: functional; conditions: Homo sapiens
[7] = target: DNA topoisomerase (Yersinia pestis, UniProt A0A2S9PM60); test: Y. pestis Topo-I inhibitors, cleavage product readout, dose response, biochemical, cherry-pick (AID 588525)
[8] = test system: INS1; test: beta cell apoptosis inhibitors, cytokine rescue, dose response, luminescence, retest (AID 449756); type: functional, cell-based; conditions: Rattus norvegicus;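 note: cell death triggered by IL-1 beta plus TNF-alpha plus IFN-gamma mixture; protective hits raise ATP signal compared with cytokine alone wells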
[9] = test system: Candida albicans; test: growth inhibition of resistant C. albicans, dose response, CaCi-8 strain, fluconazole, dry powder, set 4 (AID 488950); type: functional, organism-based
[10] = test system: Candida albicans; test: fluconazole resistance reversal in C. albicans, dose response, CaCi-2 strain, Alamar Blue, dry powder, set 4 (AID 488943); type: functional, organism-based
[11] = test system: Candida albicans; test: reversal of fluconazole resistance in C. albicans, dose response, CaCi-2 strain, Alamar Blue, dry powder, set 3 (AID 488907); type: functional, organism-based
[12] = target: Latent membrane protein 1 (Human herpesvirus 4 (strain B95-8), UniProt P03230); test: TES1-eGFP NF-kB reporter inhibition versus Tet-On dsRED, dose response, selectivity assay for LMP1 NF-kB inhibitor project, imaging, HEK293T, dual-color eGFP/dsRED, cherry-picks (AID 588398); type: functional, cell-based
[13] = target: T2, DNA repair protein RAD52 homolog (Homo sapiens, UniProt P43351); type: functional, biochemical
T2 sequence (P43351 whole entry): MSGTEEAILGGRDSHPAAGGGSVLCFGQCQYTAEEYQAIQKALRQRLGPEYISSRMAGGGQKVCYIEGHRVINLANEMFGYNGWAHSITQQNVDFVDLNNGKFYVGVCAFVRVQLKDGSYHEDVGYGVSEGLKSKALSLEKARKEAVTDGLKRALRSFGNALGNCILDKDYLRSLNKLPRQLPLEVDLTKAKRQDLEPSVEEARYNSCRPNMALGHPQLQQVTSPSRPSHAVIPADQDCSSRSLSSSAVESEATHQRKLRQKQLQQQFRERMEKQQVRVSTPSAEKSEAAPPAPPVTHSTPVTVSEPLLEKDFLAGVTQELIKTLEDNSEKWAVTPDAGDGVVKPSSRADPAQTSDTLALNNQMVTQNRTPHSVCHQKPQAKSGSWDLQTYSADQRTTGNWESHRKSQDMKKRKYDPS

Chain of Phospholipase A2 (P04054 whole entry): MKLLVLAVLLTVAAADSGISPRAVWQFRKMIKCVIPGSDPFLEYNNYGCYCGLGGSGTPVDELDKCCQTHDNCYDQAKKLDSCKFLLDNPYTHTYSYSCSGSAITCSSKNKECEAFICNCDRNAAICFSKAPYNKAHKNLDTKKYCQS
Chain of DNA topoisomerase (A0A2S9PM60 whole entry): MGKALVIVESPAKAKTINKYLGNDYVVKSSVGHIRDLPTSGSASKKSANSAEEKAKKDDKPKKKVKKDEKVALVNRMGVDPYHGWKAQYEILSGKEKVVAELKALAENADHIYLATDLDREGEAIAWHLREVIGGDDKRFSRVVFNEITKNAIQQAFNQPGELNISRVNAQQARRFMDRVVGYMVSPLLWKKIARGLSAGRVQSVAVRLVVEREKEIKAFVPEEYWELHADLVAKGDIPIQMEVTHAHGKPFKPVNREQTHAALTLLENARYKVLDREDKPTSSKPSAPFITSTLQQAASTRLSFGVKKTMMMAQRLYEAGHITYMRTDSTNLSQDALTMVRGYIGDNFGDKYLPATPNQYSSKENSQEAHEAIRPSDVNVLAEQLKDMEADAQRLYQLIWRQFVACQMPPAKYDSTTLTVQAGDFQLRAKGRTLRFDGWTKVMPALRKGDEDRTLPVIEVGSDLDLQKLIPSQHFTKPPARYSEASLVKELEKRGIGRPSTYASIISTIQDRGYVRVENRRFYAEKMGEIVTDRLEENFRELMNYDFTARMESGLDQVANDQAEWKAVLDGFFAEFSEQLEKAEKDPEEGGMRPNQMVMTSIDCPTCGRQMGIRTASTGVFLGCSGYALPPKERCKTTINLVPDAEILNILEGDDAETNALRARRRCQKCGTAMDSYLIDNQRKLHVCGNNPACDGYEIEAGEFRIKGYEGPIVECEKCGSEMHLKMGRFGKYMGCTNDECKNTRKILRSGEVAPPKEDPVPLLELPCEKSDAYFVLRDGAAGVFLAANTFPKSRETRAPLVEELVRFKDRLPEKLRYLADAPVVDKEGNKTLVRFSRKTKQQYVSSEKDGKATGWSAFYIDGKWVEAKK
Chain of Latent membrane protein 1 (P03230 whole entry): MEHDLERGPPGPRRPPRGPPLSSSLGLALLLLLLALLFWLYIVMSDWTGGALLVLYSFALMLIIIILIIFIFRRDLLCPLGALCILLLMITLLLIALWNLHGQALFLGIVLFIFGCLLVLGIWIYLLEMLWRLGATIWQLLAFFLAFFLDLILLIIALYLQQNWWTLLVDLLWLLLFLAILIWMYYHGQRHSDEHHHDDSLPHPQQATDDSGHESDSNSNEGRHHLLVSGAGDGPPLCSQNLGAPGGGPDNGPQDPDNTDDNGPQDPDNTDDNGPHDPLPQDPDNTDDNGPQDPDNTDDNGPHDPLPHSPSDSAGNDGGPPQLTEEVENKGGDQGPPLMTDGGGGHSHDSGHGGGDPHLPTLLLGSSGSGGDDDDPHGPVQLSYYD
Chain of Cysteine protease ATG4B (Q9Y4P1 whole entry): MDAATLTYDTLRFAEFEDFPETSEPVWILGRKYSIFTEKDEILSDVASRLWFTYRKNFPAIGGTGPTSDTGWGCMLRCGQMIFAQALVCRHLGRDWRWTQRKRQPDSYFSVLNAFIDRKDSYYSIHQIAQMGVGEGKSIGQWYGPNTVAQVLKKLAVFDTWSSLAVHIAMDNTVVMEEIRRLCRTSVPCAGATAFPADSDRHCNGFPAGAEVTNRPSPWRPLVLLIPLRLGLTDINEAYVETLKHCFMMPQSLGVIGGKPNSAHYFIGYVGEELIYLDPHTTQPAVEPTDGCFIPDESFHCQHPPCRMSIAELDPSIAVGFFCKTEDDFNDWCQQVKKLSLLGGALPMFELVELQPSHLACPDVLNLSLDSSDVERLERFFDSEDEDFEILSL

In the case of CC(C)c1ccccc1OCC(=O)NC1CCCc2ccccc21 (stereo not drawn), the EC50 [1] is reported as 16.3 µM (active), the EC50 [2] is reported as 18.5 µM (active) and the EC50 [3] is reported as > 150 µM (not active). The IC50 [4] was 12.2 µM (active) and the IC50 [5] was 9.38 µM (active).

For O=C(NCCN(CCNC(=O)c1nc[nH]c1C(=O)Nc1ccc(Cl)cc1)CCNC(=O)c1nc[nH]c1C(=O)Nc1ccc(Cl)cc1)c1nc[nH]c1C(=O)Nc1ccc(Cl)cc1, the AC50 [6] was 1.67 µM (active), the AC50 [7] was 6.39 µM (active) and the AC50 [8] was 7.12 µM (active).

For O=C(c1ccc(Cl)cc1)N1CCN(c2nc3ccccc3o2)CC1, the AC50 [9] was 0.176 µM (active), the AC50 [10] was 14.9 µM (active) and the AC50 [11] was 0.465 µM (active).

With CC1(C)N=C(N)N=C(N)N1c1ccc(CCCCc2ccccc2)cc1 the AC50 [12] was 28.9 µM (active) and the AC50 [13] was 11.2 µM (active).
